Experimental data: ChEMBL document CHEMBL1687927, “Design and optimization of potent and orally bioavailable tetrahydronaphthalene Raf inhibitors” (J Med Chem, 2011)
Calls of active or inactive are those of the source. The rule behind the calls is not given here.

Legend:
[1] = target: T1, Serine/threonine-protein kinase B-raf (Homo sapiens, UniProt P15056, V600E)
[2] = target: RAF proto-oncogene serine/threonine-protein kinase (Homo sapiens, UniProt P04049); assay: Inhibition of C-Raf assessed as reduction in [33P]ATP incorporation into biotinylated substrate peptide after 3 hrs by flash plate assay
[3] = target: T1, Serine/threonine-protein kinase B-raf; assay: Inhibition of raf kinase in human A375 cells assessed as decrease in MEK-mediated ERK phosphorylation after 3 hrs using 3,3',5,5'-tetramethylbenzidine liquid substrate system; assay type: cell-based; conditions: a-375
[4] = AUC (0 to 24 hrs) in mouse at 10 mg, po in 20% HPbCD vehicle; assay type: ADME, organism-based; set-up: dose 10 mg, time < 24 hr, route oral; conditions: plasma
[5] = test system: Mus musculus; assay: Volume of distribution at steady state in mouse at 1 mg/kg, iv or 10 mg, po; assay type: ADME, organism-based; set-up: dose 1 mg/kg, route oral; conditions: in vivo
[6] = Oral bioavailability in mouse at 10 mg; assay type: ADME, organism-based; conditions: in vivo
[7] = test system: Mus musculus; assay: Plasma clearance in mouse at 1 mg/kg, iv and 10 mg, po in 10% HPbCD vehicle; assay type: ADME, organism-based; set-up: dose 1 mg/kg, route oral; conditions: in vivo
[8] = AUC (0 to 24 hrs) in mouse at 10 mg, po in 10% HPbCD vehicle; assay type: ADME, organism-based; set-up: time < 24 hr, dose 10 mg, route oral; conditions: plasma
[9] = Plasma clearance in mouse at 10 mg, po in 20% HPbCD vehicle; assay type: ADME, organism-based
[10] = test system: Mus musculus; assay: Inhibition of ERK phosphorylation in human A375M cells xenografted in mouse at 100 mg/kg, po administered as single dose in 10% HPbCD measured 4 hrs post dose by Li-Cor quantitative Western blot analysis relative to control; assay type: functional
[11] = test system: Mus musculus; assay: Inhibition of ERK phosphorylation in human A375M cells xenografted in mouse at 100 mg/kg, po administered as single dose in 10% HPbCD measured 8 hrs post dose by Li-Cor quantitative Western blot analysis relative to control; assay type: functional
[12] = test system: Mus musculus; assay: Inhibition of ERK phosphorylation in human A375M cells xenografted in mouse at 100 mg/kg, po administered as single dose in 10% HPbCD measured 24 hrs post dose by Li-Cor quantitative Western blot analysis relative to control; assay type: functional
[13] = Plasma concentration in mouse xenografted with human A375M cells at 100 mg/kg, po administered as single dose in 10% HPbCD measured 4 hrs post dose by LC/MS/MS; assay type: ADME, organism-based; set-up: dose 100 mg/kg, route oral
[14] = Plasma concentration in mouse xenografted with human A375M cells at 100 mg/kg, po administered as single dose in 10% HPbCD measured 8 hrs post dose by LC/MS/MS; assay type: ADME, organism-based; set-up: dose 100 mg/kg, route oral
[15] = Plasma concentration in mouse xenografted with human A375M cells at 100 mg/kg, po administered as single dose in 10% HPbCD measured 24 hrs post dose by LC/MS/MS; assay type: ADME, organism-based; set-up: dose 100 mg/kg, route oral
[16] = Inhibition of MEK
[17] = Inhibition of PDGFR
[18] = test system: Homo sapiens; assay: Antitumor activity against human A375M cells xenografted mouse model assessed as partial tumor regression at 100 mg/kg, po qd for 21 days; assay type: functional, organism-based; set-up: dose 100 mg/kg
[19] = test system: Plasma; assay: Plasma concentration in mouse assessed as (R)-3-((methyl amino)methyl)-N-(7-(7-oxo-5,6,7,8-tetrahydro-1,8-naphthyridin-4-yloxyl)-1,2,3,4-tetrahydronaphthalen-2-yl )-5-(trifluoromethyl)benzamide at 10 mg, po; assay type: ADME, organism-based; conditions: in vivo
[20] = test system: Mus musculus; assay: Inhibition of ERK phosphorylation in human A375M cells xenografted in mouse at 75 mg/kg, po administered as single dose in 10% HPbCD measured 4 hrs post dose by Li-Cor quantitative Western blot analysis relative to control; assay type: functional
[21] = test system: Mus musculus; assay: Inhibition of ERK phosphorylation in human A375M cells xenografted in mouse at 75 mg/kg, po administered as single dose in 10% HPbCD measured 8 hrs post dose by Li-Cor quantitative Western blot analysis relative to control; assay type: functional
[22] = test system: Mus musculus; assay: Inhibition of ERK phosphorylation in human A375M cells xenografted in mouse at 75 mg/kg, po administered as single dose in 10% HPbCD measured 24 hrs post dose by Li-Cor quantitative Western blot analysis relative to control; assay type: functional
[23] = Plasma concentration in mouse xenografted with human A375M cells at 75 mg/kg, po administered as single dose in 10% HPbCD measured 4 hrs post dose by LC/MS/MS; assay type: ADME, organism-based; set-up: dose 75 mg/kg, route oral
[24] = Plasma concentration in mouse xenografted with human A375M cells at 75 mg/kg, po administered as single dose in 10% HPbCD measured 8 hrs post dose by LC/MS/MS; assay type: ADME, organism-based; set-up: dose 75 mg/kg, route oral
[25] = Plasma concentration in mouse xenografted with human A375M cells at 75 mg/kg, po administered as single dose in 10% HPbCD measured 24 hrs post dose by LC/MS/MS; assay type: ADME, organism-based; set-up: dose 75 mg/kg, route oral
[26] = test system: Homo sapiens; assay: Antitumor activity against human A375M cells xenografted mouse model assessed as partial tumor regression at 75 mg/kg, po qd for 21 days; assay type: functional, organism-based; set-up: dose 75 mg/kg

T1 sequence (P15056 2-766 V600E limits assumed): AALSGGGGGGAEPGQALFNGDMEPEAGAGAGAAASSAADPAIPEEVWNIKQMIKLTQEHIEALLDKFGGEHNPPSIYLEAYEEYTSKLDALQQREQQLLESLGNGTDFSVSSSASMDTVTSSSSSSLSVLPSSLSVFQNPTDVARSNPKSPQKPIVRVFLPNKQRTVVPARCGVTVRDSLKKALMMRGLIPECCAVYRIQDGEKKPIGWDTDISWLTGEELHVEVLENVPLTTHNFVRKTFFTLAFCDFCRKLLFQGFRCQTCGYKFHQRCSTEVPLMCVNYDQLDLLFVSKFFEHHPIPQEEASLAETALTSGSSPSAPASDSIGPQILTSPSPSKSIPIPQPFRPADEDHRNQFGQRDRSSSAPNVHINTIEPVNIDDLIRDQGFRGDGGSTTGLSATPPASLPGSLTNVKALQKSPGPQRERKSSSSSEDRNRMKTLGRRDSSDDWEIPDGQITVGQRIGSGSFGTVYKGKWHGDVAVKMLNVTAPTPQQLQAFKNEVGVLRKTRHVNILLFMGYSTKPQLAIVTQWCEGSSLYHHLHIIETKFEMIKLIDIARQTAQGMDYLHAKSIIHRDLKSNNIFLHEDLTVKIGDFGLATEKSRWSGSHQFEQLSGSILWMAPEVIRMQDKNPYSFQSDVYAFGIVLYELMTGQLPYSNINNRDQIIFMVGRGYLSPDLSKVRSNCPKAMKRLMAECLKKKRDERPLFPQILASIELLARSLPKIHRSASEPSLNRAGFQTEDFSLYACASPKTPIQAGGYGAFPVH
Chain of RAF proto-oncogene serine/threonine-protein kinase (P04049 whole entry): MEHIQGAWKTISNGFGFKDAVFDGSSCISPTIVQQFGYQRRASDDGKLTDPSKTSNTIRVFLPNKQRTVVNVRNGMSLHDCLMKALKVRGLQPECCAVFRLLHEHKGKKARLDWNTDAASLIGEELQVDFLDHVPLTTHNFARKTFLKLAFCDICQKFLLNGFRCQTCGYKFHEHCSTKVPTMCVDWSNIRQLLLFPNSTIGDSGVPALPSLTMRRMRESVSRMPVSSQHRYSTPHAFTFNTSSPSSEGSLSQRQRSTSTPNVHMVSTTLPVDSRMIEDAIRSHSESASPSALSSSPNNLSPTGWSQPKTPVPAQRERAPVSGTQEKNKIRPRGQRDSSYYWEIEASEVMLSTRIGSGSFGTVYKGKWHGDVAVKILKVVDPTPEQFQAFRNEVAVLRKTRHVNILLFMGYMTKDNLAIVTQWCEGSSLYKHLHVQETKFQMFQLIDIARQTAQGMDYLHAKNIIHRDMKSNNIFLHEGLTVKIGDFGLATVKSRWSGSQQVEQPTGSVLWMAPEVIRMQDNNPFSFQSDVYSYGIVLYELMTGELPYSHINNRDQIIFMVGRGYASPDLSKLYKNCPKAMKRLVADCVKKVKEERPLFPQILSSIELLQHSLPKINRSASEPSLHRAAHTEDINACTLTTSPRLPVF

SMILES	IC50 [1] [nM]	IC50 [2] [nM]	IC50 [3] [nM]	Vdss [5] [L/kg]	bioavailability [6] [%]	further results
CC(C)NCc1cc(NC(=O)C2CCc3ccc(Oc4ccnc(NC(=O)C5CC5)c4)cc3C2)cc(C(F)(F)F)c1 (stereo unspecified)	5	4.6	190			AUC(0-t) at 24 h [4]: 15.6 µM·h
CC(=O)Nc1cc(Oc2ccc3c(c2)C[C@@H](C(=O)Nc2cc(CN)cc(C(F)(F)F)c2)CC3)ccn1		6				
CNC(=O)c1cc(Oc2ccc3c(c2)CC(C(=O)Nc2cc(CN)cc(C(F)(F)F)c2)CC3)ccn1 (stereo unspecified)	20	11	1400			
CNC(=O)c1cc(Oc2cccc(CCC(=O)Nc3ccc(Cl)c(C(F)(F)F)c3)c2)ccn1	47	9	> 25000			
CC(C)(N)c1cc(NC(=O)[C@H]2CCc3ccc(Oc4ccnc5c4CCC(=O)N5)cc3C2)cc(C(F)(F)F)c1			79			
CNC(=O)c1cc(Oc2ccc3c(c2)CC(C(=O)Nc2ccc(CN)c(C(F)(F)F)c2)CC3)ccn1 (stereo unspecified)	26	16	5000			
CNCc1cc(C(=O)N[C@@H]2CCc3ccc(Oc4ccnc5c4CCC(=O)N5)cc3C2)cc(C(F)(F)F)c1				0.75	50	CL [7]: 12.2 mL/min/kg; AUC(0-t) at 24 h [8]: 12.4 µM·h
CN(C)Cc1cc(C(=O)N[C@H]2CCc3ccc(Oc4ccnc(NC(=O)C5CC5)c4)cc3C2)cc(C(F)(F)F)c1	3.2		1100			
CC(C)NCc1cc(NC(=O)[C@H]2CCc3ccc(Oc4ccnc5c4CCC(=O)N5)cc3C2)cc(C(F)(F)F)c1	3.3		110	3.87	20	CL [7]: 5.33 mL/min/kg; AUC(0-t) at 24 h [8]: 20.7 µM·h
CN(C)Cc1cc(NC(=O)[C@H]2CCc3ccc(Oc4ccnc(NC(=O)C5CC5)c4)cc3C2)cc(C(F)(F)F)c1	4	3.3	130	6.07	27	CL/F [9]: 23.5 mL/min/kg; AUC(0-t) at 24 h [4]: 2.87 µM·h
NCc1cc(NC(=O)[C@@H]2CCc3ccc(Oc4ccnc(NC(=O)C5CC5)c4)cc3C2)cc(C(F)(F)F)c1	6	6	780			
CN(C)Cc1cc(C(=O)N[C@@H]2CCc3ccc(Oc4ccnc5c4CCC(=O)N5)cc3C2)cc(C(F)(F)F)c1				0.75	100	inhibition in vivo at 100 mg/kg [10]: 93%; inhibition in vivo at 100 mg/kg [11]: 92%; inhibition in vivo at 100 mg/kg [12]: 72%; concentration at 4 h [13]: 28 µM; concentration at 8 h [14]: 29 µM; concentration at 24 h [15]: 0.4 µM; IC50 [16]: > 10000 nM; IC50 [17]: 1100 nM; Activity [18]: Active; CL [7]: 3.83 mL/min/kg; AUC(0-t) at 24 h [8]: 98.6 µM·h; Drug uptake [19]: 30%
CNC(=O)c1cc(Oc2ccc3c(c2)CC(C(=O)Nc2ccc(Cl)c(C(F)(F)F)c2)CC3)ccn1 (racemic)	32	28	2900			
CC(C)(N)c1cc(C(=O)N[C@@H]2CCc3ccc(Oc4ccnc5c4CCC(=O)N5)cc3C2)cc(C(F)(F)F)c1				3.93	85	inhibition in vivo at 75 mg/kg [20]: 87%; inhibition in vivo at 75 mg/kg [21]: 90%; inhibition in vivo at 75 mg/kg [22]: 83%; concentration at 4 h [23]: 23 µM; concentration at 8 h [24]: 27 µM; concentration at 24 h [25]: 3 µM; IC50 [16]: 1400 nM; IC50 [17]: 47 nM; Activity [26]: Active; CL [7]: 7.33 mL/min/kg; AUC(0-t) at 24 h [8]: 35.9 µM·h
NCc1cc(NC(=O)[C@H]2CCc3ccc(Oc4ccnc(NC(=O)C5CC5)c4)cc3C2)cc(C(F)(F)F)c1	5	4.5	130			
CNC(=O)c1cc(Oc2ccc(CCC(=O)Nc3ccc(Cl)c(C(F)(F)F)c3)cc2)ccn1	61	10	> 25000			
CN(C)Cc1cc(C(=O)N[C@@H]2CCc3ccc(Oc4ccnc(NC(=O)C5CC5)c4)cc3C2)cc(C(F)(F)F)c1	2.9		70	2.19	22	CL [7]: 35.7 mL/min/kg; AUC(0-t) at 24 h [8]: 0.51 µM·h
NCc1cc(NC(=O)C2CCc3ccc(Oc4ccnc(NC(=O)C5CC5)c4)cc3C2)cc(C(F)(F)F)c1 (stereo unspecified)	8	6.2	150	6.4	1.9	CL/F [9]: 6.67 mL/min/kg; AUC(0-t) at 24 h [4]: 0.58 µM·h
